Literature values in patent publication US5503831A, “Lipase inhibitor derived from a defatted rice germ” (Yakurigaku Chuo Kenkyusho, priority 1993, dated 1996).

System: lipase
Settings: in the presence of bile acids (sodium taurocholic acid for wheat germ protein), emulsified lipids

Substance	Action on lipase in the presence of bile acids
serum albumin	does not exert such an action
β-lactoglobulin	does not exert such an action
